Laboratory results published in patent US9700563B2, “Kappa opioid receptor compounds” (MediSynergies, LLC, priority 2012, dated 2017).
pKi: −log10 of the molar value.

Key:
[1] = cited from earlier work
[2] = biological target: Human KOR (Homo sapiens (Human), UniProt P41145); test: Opioid receptor affinity, Kappa (KOR), NIMH PDSP; format: binding; conditions: human KOR expressed in CHO cells
Protocol: (§1) The compounds were tested for activity vs. opioid receptor subtypes Kappa (KOR), Delta (DOR) and Mu (MOR) at an initial concentration of 10 μM each, through the NIMH Psychoactive Drug Screening Program (PDSP), operated by Dr. Bryan Roth and his colleagues in the Department of Pharmacology at the University of North Carolina (Chapel Hill, N.C.) through an agreement with the National Institute of Mental Health (NIMH). Human KOR, DOR and MOR were expressed in CHO cells for each assay.

[3] = biological target: Human MOR (Homo sapiens (Human), UniProt P35372); test: Opioid receptor affinity, Mu (MOR), NIMH PDSP; format: binding; conditions: read-out: MOR % inh. at 10 uM
Protocol: as §1

[4] = biological target: Human DOR (Homo sapiens (Human), UniProt P41143); test: Opioid receptor affinity, Delta (DOR), NIMH PDSP; format: binding; conditions: read-out: DOR % inh. at 10 uM
Protocol: as §1

Sequence of Human MOR (P35372 whole entry): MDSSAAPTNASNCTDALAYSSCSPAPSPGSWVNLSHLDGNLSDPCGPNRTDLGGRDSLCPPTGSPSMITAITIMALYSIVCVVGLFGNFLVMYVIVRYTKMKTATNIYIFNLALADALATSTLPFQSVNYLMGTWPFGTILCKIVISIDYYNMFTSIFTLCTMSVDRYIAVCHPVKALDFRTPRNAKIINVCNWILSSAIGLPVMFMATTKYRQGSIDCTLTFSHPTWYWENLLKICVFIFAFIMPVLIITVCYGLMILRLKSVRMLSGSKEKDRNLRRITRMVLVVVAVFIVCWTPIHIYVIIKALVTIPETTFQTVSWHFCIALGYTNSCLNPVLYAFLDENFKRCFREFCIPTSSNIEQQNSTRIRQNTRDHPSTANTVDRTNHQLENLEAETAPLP
Sequence of Human DOR (P41143 whole entry): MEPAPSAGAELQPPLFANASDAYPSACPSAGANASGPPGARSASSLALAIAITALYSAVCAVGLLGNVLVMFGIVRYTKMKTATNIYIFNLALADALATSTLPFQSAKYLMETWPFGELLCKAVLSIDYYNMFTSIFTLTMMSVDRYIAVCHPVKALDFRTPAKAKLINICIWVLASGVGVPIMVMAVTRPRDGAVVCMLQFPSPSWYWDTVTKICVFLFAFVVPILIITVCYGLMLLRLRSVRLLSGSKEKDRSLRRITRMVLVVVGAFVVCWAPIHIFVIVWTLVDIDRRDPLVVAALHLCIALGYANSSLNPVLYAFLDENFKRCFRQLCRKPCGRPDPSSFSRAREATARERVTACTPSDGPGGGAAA
Sequence of Human KOR (P41145 whole entry): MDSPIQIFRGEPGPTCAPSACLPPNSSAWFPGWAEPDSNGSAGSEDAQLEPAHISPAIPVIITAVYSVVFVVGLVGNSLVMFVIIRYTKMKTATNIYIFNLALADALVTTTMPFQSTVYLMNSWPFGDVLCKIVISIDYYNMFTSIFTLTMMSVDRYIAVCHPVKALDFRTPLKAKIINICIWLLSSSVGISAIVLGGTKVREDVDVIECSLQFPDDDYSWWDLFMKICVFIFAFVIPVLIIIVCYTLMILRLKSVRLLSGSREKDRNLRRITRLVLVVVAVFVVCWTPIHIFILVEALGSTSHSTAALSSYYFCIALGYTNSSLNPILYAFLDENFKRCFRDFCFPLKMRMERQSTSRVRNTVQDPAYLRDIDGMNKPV

CC(C)C[C@@H](NC(=O)[C@@H](Cc1ccccc1)NC(=O)[C@H](N)Cc1ccccc1)C(=O)N[C@H](CCCCN)C(=O)N1CCC(N)(C(=O)O)CC1 [CR845]
dysphoric behavior or hallucinations ([1]; Phase II trials in the U.S.): has not displayed dysphoric behavior or hallucinations | incidence of nausea and vomiting ([1]; post-operative patients): reduced incidence of nausea and vomiting

CN(C)CCCC1(c2ccc(F)cc2)OCc2cc(C(=N)NCc3ccccc3)ccc21 (stereo not shown) [Example 4, N-benzyl-1-[3-(dimethylamino)propyl]-1-(4-fluorophenyl)-1,3-dihydro-2-benzofuran-5-carboximidamide]
pKi [2]: 7.52 | inhibition at 10 µM [3]: 39% | inhibition at 10 µM [4]: 10%

CN(C)CCCC1(c2ccc(F)cc2)OCc2cc(C(=N)N3CCCC3)ccc21 (stereo not shown) [Example 6, 1-[1-[3-(dimethylamino)propyl]-1-(4-fluorophenyl)-1,3-dihydro-2-benzofuran-5-yl]-1-(pyrrolidin-1-yl)-methanimine]
pKi [2]: 6.60 | inhibition at 10 µM [3]: 8% | inhibition at 10 µM [4]: 6%

CN(C)CCCC1(c2ccc(F)cc2)OCc2cc(-c3ncc[nH]3)ccc21 (stereo not shown) [Example 7]
inhibition at 10 µM [3]: 39% | inhibition at 10 µM [4]: 24%
